# Source: ChEMBL document CHEMBL4420071, “Method for treating skin with retinoids and retinoid boosters” (2013)
# Legend:
# [1] = biological target: T1, Lecithin retinol acyltransferase (Bos taurus) (UniProt Q9BGL2); conditions: at 100 µM
# T1 sequence (whole entry): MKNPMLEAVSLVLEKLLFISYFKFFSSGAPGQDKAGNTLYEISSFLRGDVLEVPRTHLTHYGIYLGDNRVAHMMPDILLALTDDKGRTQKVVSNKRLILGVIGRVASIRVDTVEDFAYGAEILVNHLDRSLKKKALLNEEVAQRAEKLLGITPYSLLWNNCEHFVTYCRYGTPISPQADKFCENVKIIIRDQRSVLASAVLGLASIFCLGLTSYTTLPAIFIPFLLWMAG
# Description: Inhibition of LRAT in bovine RPE microsomes at 100 uM using retinol substrate in presence of Palmitoyl-CoA incubated for 5 mins by HPLC analysis relative to control
# [2] = biological target: T2, Diacylglycerol O-acyltransferase 1 (Bos taurus) (UniProt Q8MK44); conditions: at 100 µM
# T2 sequence (whole entry): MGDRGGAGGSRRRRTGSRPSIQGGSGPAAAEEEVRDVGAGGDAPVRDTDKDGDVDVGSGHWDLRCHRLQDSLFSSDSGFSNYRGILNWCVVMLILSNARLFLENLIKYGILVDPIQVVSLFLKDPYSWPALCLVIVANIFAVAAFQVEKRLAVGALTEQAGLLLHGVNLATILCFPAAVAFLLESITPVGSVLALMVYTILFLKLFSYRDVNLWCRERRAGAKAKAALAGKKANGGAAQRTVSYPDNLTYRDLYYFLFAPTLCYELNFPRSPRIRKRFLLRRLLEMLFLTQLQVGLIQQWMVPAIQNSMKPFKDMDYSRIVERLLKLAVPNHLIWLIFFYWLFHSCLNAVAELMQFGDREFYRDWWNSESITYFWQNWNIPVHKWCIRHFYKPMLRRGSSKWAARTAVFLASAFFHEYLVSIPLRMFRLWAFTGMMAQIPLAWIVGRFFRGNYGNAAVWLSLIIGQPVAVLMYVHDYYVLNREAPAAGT
# Description: Inhibition of ARAT in bovine RPE microsomes at 100 uM using retinol substrate in presence of dilauroyl-phosphatidyl choline incubated for 5 mins by HPLC analysis relative to control
# Homo sapiens [3] = species: Homo sapiens; test: Inhibition of transglutaminase in human keratinocytes assessed as mean transglutaminase activity level at 1 10^-5M in presence of 10 uM retinal relative to retinal alone; format: cell-based; design: scale not given: the % may be the effect or the level left
# Homo sapiens [4] = species: Homo sapiens; test: Inhibition of transglutaminase in human keratinocytes assessed as mean transglutaminase activity level at 1.23 10^-7M in presence of 10 uM retinal relative to retinal alone; format: cell-based; design: scale not given: the % may be the effect or the level left
# Homo sapiens [5] = species: Homo sapiens; test: Inhibition of transglutaminase in human keratinocytes assessed as mean transglutaminase activity level at 1.65 10^-9M in presence of 10 uM retinal relative to retinal alone; format: cell-based; design: scale not given: the % may be the effect or the level left
# Homo sapiens [6] = species: Homo sapiens; test: Inhibition of transglutaminase in human keratinocytes assessed as mean transglutaminase activity level at 3.29 10^-9M in presence of 10 uM retinal relative to retinal alone; format: cell-based; design: scale not given: the % may be the effect or the level left
# Homo sapiens [7] = species: Homo sapiens; test: Inhibition of transglutaminase in human keratinocytes assessed as mean transglutaminase activity level at 8.2 10^-8M in presence of 10 uM retinal relative to retinal alone; format: cell-based; design: scale not given: the % may be the effect or the level left
# Homo sapiens [8] = species: Homo sapiens; test: Inhibition of transglutaminase in human keratinocytes assessed as mean transglutaminase activity level at 3.3 10^-6M in presence of 10 uM retinal relative to retinal alone; format: cell-based; design: scale not given: the % may be the effect or the level left
# Rattus norvegicus = species: Rattus norvegicus; test: Inhibition of retinal reductase in Sprague-Dawley rat liver microsomes at 100 uM using all-trans retinaldehyde and NADPH by HPLC analysis relative to control
# Homo sapiens [9] = species: Homo sapiens; test: Inhibition of transglutaminase in human keratinocytes assessed as mean transglutaminase activity level at 4.1 10^-8M in presence of 10 uM retinal relative to retinal alone; format: cell-based; design: scale not given: the % may be the effect or the level left
# Homo sapiens [10] = species: Homo sapiens; test: Inhibition of transglutaminase in human keratinocytes assessed as mean transglutaminase activity level at 1.1 10^-6M in presence of 10 uM retinal relative to retinal alone; format: cell-based; design: scale not given: the % may be the effect or the level left
# Homo sapiens [11] = species: Homo sapiens; test: Inhibition of transglutaminase in human keratinocytes assessed as mean transglutaminase activity level at 3.73 10^-7M in presence of 10 uM retinal relative to retinal alone; format: cell-based; design: scale not given: the % may be the effect or the level left
# Homo sapiens [12] = species: Homo sapiens; test: Inhibition of transglutaminase in human keratinocytes assessed as mean transglutaminase activity level at 3 10^-5M in presence of 10 uM retinal relative to retinal alone; format: cell-based; design: scale not given: the % may be the effect or the level left
# Homo sapiens [13] = species: Homo sapiens
# Description: Inhibition of transglutaminase in human keratinocytes in presence of 10 uM retinal relative to retinal alone
# [14] = biological target: T1, Lecithin retinol acyltransferase (Bos taurus); test: Inhibition of LRAT in bovine RPE microsomes at 10 uM using retinol substrate in presence of Palmitoyl-CoA incubated for 5 mins by HPLC analysis relative to control
# Homo sapiens [15] = species: Homo sapiens; test: Inhibition of transglutaminase in human keratinocytes assessed as mean transglutaminase activity level at 3.29 10^-7M in presence of 10 uM retinal relative to retinal alone; format: cell-based; design: scale not given: the % may be the effect or the level left
# Homo sapiens [16] = species: Homo sapiens; test: Inhibition of transglutaminase in human keratinocytes assessed as mean transglutaminase activity level at 1.1 10^-4M in presence of 10 uM retinal relative to retinal alone; format: cell-based; design: scale not given: the % may be the effect or the level left
# Homo sapiens [17] = species: Homo sapiens; test: Inhibition of transglutaminase in human keratinocytes assessed as mean transglutaminase activity level at 8.2 10^-6M in presence of 10 uM retinal relative to retinal alone; format: cell-based; design: scale not given: the % may be the effect or the level left
# Homo sapiens [18] = species: Homo sapiens; test: Inhibition of transglutaminase in human keratinocytes assessed as mean transglutaminase activity level at 3.73 10^-4M in presence of 10 uM retinal relative to retinal alone; format: cell-based; design: scale not given: the % may be the effect or the level left
# Homo sapiens [19] = species: Homo sapiens; test: Inhibition of transglutaminase in human keratinocytes assessed as mean transglutaminase activity level at 1.0 10^-3M in presence of 10 uM retinal relative to retinal alone; format: cell-based; design: scale not given: the % may be the effect or the level left
# Homo sapiens [20] = species: Homo sapiens; test: Inhibition of transglutaminase in human keratinocytes assessed as mean transglutaminase activity level at 1.65 10^-7M in presence of 10 uM retinal relative to retinal alone; format: cell-based; design: scale not given: the % may be the effect or the level left
# Homo sapiens [21] = species: Homo sapiens; test: Inhibition of transglutaminase in human keratinocytes assessed as mean transglutaminase activity level at 4.1 10^-5M in presence of 10 uM retinal relative to retinal alone; format: cell-based; design: scale not given: the % may be the effect or the level left
# [22] = biological target: T3, Cellular retinoic acid-binding protein 2 (Homo sapiens) (UniProt P29373); test: Inhibition of radioactive all-trans retinoic acid binding to CRABP2 (unknown origin) expressed in Escherichia coli BLR(DE3)pLys incubated for 1 hr by scintillation counting assay; conditions: concentration not given here
# T3 sequence (whole entry): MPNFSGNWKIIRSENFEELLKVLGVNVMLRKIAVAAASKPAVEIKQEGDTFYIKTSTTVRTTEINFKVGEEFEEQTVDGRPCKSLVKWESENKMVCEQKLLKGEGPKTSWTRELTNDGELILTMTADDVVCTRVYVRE
# Homo sapiens [23] = species: Homo sapiens; test: Inhibition of transglutaminase in human keratinocytes assessed as mean transglutaminase activity level at 1.23 10^-5M in presence of 10 uM retinal relative to retinal alone; format: cell-based; design: scale not given: the % may be the effect or the level left
# Homo sapiens [24] = species: Homo sapiens; test: Inhibition of transglutaminase in human keratinocytes assessed as mean transglutaminase activity level at 5.0 10^-8M in presence of 10 uM retinal relative to retinal alone; format: cell-based; design: scale not given: the % may be the effect or the level left
# [25] = biological target: T2, Diacylglycerol O-acyltransferase 1 (Bos taurus); test: Inhibition of ARAT in bovine RPE microsomes at 10 uM using retinol substrate in presence of dilauroyl-phosphatidyl choline incubated for 5 mins by HPLC analysis relative to control
smiles,measurement,setting,value
CCC(=O)C=CC1C(C)=CCCC1(C)C (stereo not given),inhibition,[1],77%
same,inhibition,[2],67%
CC1(C)[C@@H](OC(=O)CCC(=O)O)CC[C@]2(C)[C@H]3C(=O)C=C4[C@@H]5C[C@@](C)(C(=O)O)CC[C@]5(C)CC[C@@]4(C)[C@]3(C)CC[C@@H]12,Activity,Homo sapiens [3],27.3%
same,Activity,Homo sapiens [4],81%
same,Activity,Homo sapiens [5],77.8%
same,Activity,Homo sapiens [6],64%
same,Activity,Homo sapiens [7],112%
same,Activity,Homo sapiens [8],51.7%
same,inhibition,Rattus norvegicus,26%
same,Activity,Homo sapiens [9],135%
same,Activity,Homo sapiens [10],158%
same,Activity,Homo sapiens [11],126%
same,Activity,Homo sapiens [12],-7.1%
same,IC20,Homo sapiens [13],2 ×10⁻⁷ M
CC(=O)/C(C)=C/C1C(C)=CCCC1(C)C (stereo not given),inhibition,[1],38%
CCCCCCCCCCCC(=O)NCCC[N+](C)(C)CC(=O)[O-],inhibition,[2],25%
C=CCCC(=O)/C=C/C1C(C)=CCCC1(C)C (stereo not given),inhibition,[14],17%
COc1cc(NS(C)(=O)=O)ccc1Nc1c2ccccc2nc2ccccc12,Activity,Homo sapiens [3],1.8%
same,Activity,Homo sapiens [4],65%
same,Activity,Homo sapiens [5],113%
same,Activity,Homo sapiens [6],92%
same,Activity,Homo sapiens [7],131%
same,Activity,Homo sapiens [8],64%
same,inhibition,Rattus norvegicus,22%
same,Activity,Homo sapiens [9],110%
same,Activity,Homo sapiens [10],84%
same,Activity,Homo sapiens [11],109%
same,Activity,Homo sapiens [12],-10%
same,IC20,Homo sapiens [13],3.3 ×10⁻⁶ M
C/C=C/C(=O)C1=C(C)CC(C)(C)CC1,inhibition,[2],80%
O=c1ccc2ccccc2[nH]1,IC20,Homo sapiens [13],1.7 ×10⁻⁴ M
CC(=O)/C=C/C=C(\C)CCC=C(C)C,inhibition,[2],12%
CCCCCCCCCCCCCC(=O)O,Activity,Homo sapiens [15],101%
same,Activity,Homo sapiens [16],-8%
same,Activity,Homo sapiens [17],74.2%
same,Activity,Homo sapiens [18],-6%
same,Activity,Homo sapiens [19],-2%
same,Activity,Homo sapiens [20],88.9%
same,Activity,Homo sapiens [21],75.1%
same,IC20,Homo sapiens [13],1.05 ×10⁻⁵ M
CC1(C)[C@@H](O)CC[C@]2(C)[C@H]3C(=O)C=C4[C@@H]5C[C@@](C)(C(=O)O)CC[C@]5(C)CC[C@@]4(C)[C@]3(C)CC[C@@H]12,Activity,Homo sapiens [3],0.7%
same,Activity,Homo sapiens [4],112%
same,Activity,Homo sapiens [5],103%
same,Activity,Homo sapiens [6],100%
same,Activity,Homo sapiens [7],225%
same,Activity,Homo sapiens [8],2.5%
same,inhibition,Rattus norvegicus,38%
same,Activity,Homo sapiens [9],93%
same,Activity,Homo sapiens [10],96.4%
same,Activity,Homo sapiens [11],120%
same,Activity,Homo sapiens [12],-0.3%
same,IC20,Homo sapiens [13],5.96 ×10⁻⁶ M
O=c1c(O)c(-c2ccc(O)c(O)c2)oc2cc(O)cc(O)c12,IC20,Homo sapiens [13],5.11 ×10⁻⁵ M
CCCCCCCC/C=C/CCCCCCCC(=O)O,Activity,Homo sapiens [15],69%
same,Activity,Homo sapiens [16],8%
same,inhibition,[22],> 50%
same,Activity,Homo sapiens [23],80.9%
same,Activity,Homo sapiens [24],50.5%
same,Activity,Homo sapiens [18],13.8%
same,Activity,Homo sapiens [19],12.8%
same,Activity,Homo sapiens [20],58%
same,Activity,Homo sapiens [21],58.2%
same,IC20,Homo sapiens [13],5.88 ×10⁻⁵ M
CC1=CCCC(C)(C)C1/C=C/C(=O)CC(C)C (stereo not given),inhibition,[1],45%
same,inhibition,[2],8%
CC(C)=CCC/C(C)=C/CC/C(C)=C/CC/C(C)=C/CO,inhibition,[25],38%
same,inhibition,[14],16%
same,inhibition,[1],77%
same,inhibition,[2],81%
CC(C)(C)C(=O)C(Oc1ccc(Cl)cc1)n1ccnc1 (stereo not given),IC20,Homo sapiens [13],2.45 ×10⁻⁷ M
CC(=O)N1CCN(c2ccc(OCC3COC(Cn4ccnc4)(c4ccc(Cl)cc4Cl)O3)cc2)CC1 (stereo not given),IC20,Homo sapiens [13],5.52 ×10⁻⁸ M
CC(C)=CCC/C(C)=C/CO,IC20,Homo sapiens [13],4.72 ×10⁻³ M
CCCCC/C=C\C/C=C\CCCCCCCC(=O)NCCCN(C)C,inhibition,[1],75%
same,inhibition,[2],69%
CC(C)(O)CCCC1=CCC(C=O)CC1 (stereo not given),IC20,Homo sapiens [13],4 ×10⁻⁵ M
CCCCC/C=C\C/C=C\CCCCCCCC(=O)N(CCO)CCO,inhibition,[25],12%
same,inhibition,[14],11%
same,inhibition,[1],51%
same,inhibition,[2],43%
CC(C)=CCCC(C)=CCCC(C)=CCO,inhibition,[25],23%
same,inhibition,[14],10%
same,inhibition,[1],53%
same,inhibition,[2],53%
same,IC20,Homo sapiens [13],7.82 ×10⁻⁵ M
O=c1c2cccc3cccc(c32)c2nc3ccccc3n12,IC20,Homo sapiens [13],4.69 ×10⁻⁷ M
